3 compounds from ChEMBL document CHEMBL1152560, “Substituted 2-arylbenzothiazoles as kinase inhibitors: hit-to-lead optimization” (Bioorg Med Chem, 2009) can be followed below.

The target in experiment [1] is Fibroblast growth factor receptor 4 (Homo sapiens) (UniProt P22455). As to the kind of experiment: Residual activity of FGFR4 at 0.1 uM by microplate scintillation counting.
The target in experiment [2] is Ribosomal protein S6 kinase alpha-6 (Homo sapiens) (UniProt Q9UK32). As to the kind of experiment: Residual activity of RPS6KA6 at 1 uM by microplate scintillation counting.
Ribosomal protein S6 kinase alpha-6 (Homo sapiens), sequence (Q9UK32 whole entry): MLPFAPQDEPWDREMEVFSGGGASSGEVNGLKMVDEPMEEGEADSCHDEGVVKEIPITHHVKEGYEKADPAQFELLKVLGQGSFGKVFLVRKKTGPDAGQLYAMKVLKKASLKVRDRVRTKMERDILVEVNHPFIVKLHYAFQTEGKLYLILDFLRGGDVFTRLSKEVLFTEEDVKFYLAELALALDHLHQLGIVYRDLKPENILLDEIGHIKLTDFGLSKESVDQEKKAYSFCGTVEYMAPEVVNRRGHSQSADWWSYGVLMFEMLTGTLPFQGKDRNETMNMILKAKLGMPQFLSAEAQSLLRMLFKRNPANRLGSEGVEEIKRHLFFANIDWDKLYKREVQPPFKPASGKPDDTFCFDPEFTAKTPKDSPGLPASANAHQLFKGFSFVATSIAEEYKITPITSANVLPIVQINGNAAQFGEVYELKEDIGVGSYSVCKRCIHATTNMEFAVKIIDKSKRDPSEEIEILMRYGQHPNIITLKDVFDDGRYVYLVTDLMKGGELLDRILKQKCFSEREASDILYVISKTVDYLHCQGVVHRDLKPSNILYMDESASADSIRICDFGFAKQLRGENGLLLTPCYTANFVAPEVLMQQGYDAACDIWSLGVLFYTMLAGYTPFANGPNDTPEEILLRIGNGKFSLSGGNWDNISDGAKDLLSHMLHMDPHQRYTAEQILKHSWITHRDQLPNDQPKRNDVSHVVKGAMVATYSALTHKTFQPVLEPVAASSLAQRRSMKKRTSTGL
The target of experiment [3] is Calcium/calmodulin-dependent protein kinase type 1D (Homo sapiens) (UniProt Q8IU85). As to the kind of experiment: Residual activity of CAMK1D at 0.1 uM by microplate scintillation counting.
Calcium/calmodulin-dependent protein kinase type 1D (Homo sapiens), sequence (Q8IU85 whole entry, looked up): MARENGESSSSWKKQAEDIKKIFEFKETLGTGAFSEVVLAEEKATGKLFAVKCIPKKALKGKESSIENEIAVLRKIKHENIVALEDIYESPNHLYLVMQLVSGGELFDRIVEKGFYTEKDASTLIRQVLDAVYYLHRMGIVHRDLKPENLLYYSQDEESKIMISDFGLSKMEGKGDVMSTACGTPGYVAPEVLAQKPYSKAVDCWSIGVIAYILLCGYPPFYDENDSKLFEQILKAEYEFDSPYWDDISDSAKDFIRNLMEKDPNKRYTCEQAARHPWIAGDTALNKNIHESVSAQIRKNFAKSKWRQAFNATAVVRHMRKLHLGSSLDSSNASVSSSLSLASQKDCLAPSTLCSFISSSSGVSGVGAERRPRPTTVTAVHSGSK
Experiment [4] has as its target Tyrosine-protein kinase ABL1 (Homo sapiens) (UniProt P00519). As to the kind of experiment: Residual activity of wild type ABL1 at 1 uM by microplate scintillation counting.
Experiment [5] addresses Receptor-interacting serine/threonine-protein kinase 2 (Homo sapiens) (UniProt O43353). As to the kind of experiment: Residual activity of RIPK2 at 10 uM by microplate scintillation counting.
Experiment [6] has as its target PAS domain-containing serine/threonine-protein kinase (Homo sapiens) (UniProt Q96RG2). As to the kind of experiment: Residual activity of PASK at 1 uM by microplate scintillation counting.
Experiment [7] concerns the target Proto-oncogene tyrosine-protein kinase receptor Ret (Homo sapiens) (UniProt P07949). As to the kind of experiment: Residual activity of RET at 0.1 uM by microplate scintillation counting.
For experiment [8], the target named is T1, Ephrin type-B receptor 1 (Homo sapiens) (UniProt P54762).
T1 sequence (whole entry): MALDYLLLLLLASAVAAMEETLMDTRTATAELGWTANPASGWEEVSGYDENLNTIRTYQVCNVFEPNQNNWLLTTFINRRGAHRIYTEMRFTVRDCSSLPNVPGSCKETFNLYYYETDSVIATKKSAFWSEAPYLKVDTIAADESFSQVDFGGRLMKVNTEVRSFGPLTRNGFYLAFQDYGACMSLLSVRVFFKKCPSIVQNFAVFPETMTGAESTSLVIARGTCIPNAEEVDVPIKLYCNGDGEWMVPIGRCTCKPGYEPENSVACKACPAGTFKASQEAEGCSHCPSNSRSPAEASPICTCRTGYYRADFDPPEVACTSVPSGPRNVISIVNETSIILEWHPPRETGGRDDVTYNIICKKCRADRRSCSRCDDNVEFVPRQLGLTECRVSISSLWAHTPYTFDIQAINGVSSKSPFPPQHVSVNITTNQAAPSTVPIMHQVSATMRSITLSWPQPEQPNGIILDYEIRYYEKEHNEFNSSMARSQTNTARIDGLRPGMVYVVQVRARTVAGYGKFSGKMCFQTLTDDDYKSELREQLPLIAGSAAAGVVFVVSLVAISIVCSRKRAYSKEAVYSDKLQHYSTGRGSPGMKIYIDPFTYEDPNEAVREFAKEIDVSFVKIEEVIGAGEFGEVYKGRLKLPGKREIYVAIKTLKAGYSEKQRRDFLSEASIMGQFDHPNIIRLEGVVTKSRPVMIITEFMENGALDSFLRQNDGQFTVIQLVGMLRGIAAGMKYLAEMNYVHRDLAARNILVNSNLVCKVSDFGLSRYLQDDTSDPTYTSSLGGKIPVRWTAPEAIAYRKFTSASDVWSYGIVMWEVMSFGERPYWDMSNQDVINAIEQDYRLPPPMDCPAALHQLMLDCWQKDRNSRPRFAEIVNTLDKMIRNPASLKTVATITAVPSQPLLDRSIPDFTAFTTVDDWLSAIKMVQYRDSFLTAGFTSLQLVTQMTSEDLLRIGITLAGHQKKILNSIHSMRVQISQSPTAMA
As to the kind of experiment: Residual activity of EPHB1 at 1 uM by microplate scintillation counting.

Experiment [9] has as its target Mitogen-activated protein kinase kinase kinase 8 (Homo sapiens) (UniProt P41279). As to the kind of experiment: Residual activity of COT at 10 uM by microplate scintillation counting.
The target in experiment [10] is G protein-coupled receptor kinase 4 (Homo sapiens) (UniProt P32298). As to the kind of experiment: Residual activity of GRK4 at 1 uM by microplate scintillation counting.
G protein-coupled receptor kinase 4 (Homo sapiens), sequence (P32298 whole entry, looked up): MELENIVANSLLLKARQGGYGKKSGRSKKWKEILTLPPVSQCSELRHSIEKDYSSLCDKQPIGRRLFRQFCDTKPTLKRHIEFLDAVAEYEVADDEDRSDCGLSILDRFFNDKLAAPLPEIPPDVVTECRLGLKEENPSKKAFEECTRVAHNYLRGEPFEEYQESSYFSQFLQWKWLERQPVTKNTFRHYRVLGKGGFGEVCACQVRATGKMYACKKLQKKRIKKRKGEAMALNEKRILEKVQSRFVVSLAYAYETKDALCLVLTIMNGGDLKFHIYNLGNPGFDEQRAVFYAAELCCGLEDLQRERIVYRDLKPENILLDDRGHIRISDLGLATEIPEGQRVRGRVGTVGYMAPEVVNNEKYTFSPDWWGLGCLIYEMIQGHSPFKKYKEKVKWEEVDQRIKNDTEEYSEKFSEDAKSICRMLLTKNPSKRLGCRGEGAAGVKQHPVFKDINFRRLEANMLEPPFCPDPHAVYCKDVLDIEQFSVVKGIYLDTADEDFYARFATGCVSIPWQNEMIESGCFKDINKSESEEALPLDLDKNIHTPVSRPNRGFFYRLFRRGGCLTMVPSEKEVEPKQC
For experiment [11], the target named is Tyrosine-protein kinase FRK (Homo sapiens) (UniProt P42685). As to the kind of experiment: Residual activity of FRK at 10 uM by microplate scintillation counting.
Tyrosine-protein kinase FRK (Homo sapiens), sequence (P42685 whole entry): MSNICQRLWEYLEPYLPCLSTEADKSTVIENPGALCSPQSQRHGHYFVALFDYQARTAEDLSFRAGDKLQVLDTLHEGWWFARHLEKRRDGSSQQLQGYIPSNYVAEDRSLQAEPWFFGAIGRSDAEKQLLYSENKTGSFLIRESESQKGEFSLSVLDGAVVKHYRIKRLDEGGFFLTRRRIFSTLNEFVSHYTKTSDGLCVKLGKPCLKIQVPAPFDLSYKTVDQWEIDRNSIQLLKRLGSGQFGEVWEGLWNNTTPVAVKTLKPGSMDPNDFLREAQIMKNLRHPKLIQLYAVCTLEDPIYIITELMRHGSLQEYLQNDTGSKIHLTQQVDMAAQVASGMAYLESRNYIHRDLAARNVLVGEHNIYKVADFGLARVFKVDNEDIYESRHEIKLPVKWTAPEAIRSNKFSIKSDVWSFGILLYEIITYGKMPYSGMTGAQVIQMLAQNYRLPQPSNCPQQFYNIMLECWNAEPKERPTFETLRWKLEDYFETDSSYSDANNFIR
Experiment [12] deals with CDK9/cyclin T1 (Homo sapiens) (UniProt O60563+P50750). As to the kind of experiment: Residual activity of CDK9/Cyclin T at 1 uM by microplate scintillation counting. It counts as protein-complex assay.
For experiment [13], the target named is T2, Tyrosine-protein kinase receptor TYRO3 (Homo sapiens) (UniProt Q06418).
T2 sequence (whole entry): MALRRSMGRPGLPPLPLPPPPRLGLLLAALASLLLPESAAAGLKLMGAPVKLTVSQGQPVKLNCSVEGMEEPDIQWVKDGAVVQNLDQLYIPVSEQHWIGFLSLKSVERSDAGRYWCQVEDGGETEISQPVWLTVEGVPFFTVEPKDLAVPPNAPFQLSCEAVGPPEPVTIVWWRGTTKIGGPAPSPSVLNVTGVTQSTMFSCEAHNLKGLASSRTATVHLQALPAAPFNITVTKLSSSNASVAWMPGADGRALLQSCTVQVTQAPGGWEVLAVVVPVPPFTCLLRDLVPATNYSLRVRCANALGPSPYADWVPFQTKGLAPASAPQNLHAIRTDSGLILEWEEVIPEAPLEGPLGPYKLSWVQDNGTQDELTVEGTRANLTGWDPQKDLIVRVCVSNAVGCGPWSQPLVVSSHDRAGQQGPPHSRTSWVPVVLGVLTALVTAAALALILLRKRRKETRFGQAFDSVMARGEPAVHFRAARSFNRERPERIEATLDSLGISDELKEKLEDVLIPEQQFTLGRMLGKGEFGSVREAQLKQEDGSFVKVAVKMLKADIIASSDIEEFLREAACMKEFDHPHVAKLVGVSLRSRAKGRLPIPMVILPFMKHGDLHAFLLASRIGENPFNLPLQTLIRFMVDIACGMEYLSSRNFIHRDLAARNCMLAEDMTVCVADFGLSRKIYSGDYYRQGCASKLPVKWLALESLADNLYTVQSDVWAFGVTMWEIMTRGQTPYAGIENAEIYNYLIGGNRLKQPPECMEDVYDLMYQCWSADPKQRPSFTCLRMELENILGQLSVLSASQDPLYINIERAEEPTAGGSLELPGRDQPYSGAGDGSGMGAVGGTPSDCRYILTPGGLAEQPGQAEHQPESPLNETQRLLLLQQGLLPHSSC
As to the kind of experiment: Residual activity of TYRO3 at 1 uM by microplate scintillation counting.

Fibroblast growth factor receptor 4 (Homo sapiens), sequence (P22455 22-802 limits assumed): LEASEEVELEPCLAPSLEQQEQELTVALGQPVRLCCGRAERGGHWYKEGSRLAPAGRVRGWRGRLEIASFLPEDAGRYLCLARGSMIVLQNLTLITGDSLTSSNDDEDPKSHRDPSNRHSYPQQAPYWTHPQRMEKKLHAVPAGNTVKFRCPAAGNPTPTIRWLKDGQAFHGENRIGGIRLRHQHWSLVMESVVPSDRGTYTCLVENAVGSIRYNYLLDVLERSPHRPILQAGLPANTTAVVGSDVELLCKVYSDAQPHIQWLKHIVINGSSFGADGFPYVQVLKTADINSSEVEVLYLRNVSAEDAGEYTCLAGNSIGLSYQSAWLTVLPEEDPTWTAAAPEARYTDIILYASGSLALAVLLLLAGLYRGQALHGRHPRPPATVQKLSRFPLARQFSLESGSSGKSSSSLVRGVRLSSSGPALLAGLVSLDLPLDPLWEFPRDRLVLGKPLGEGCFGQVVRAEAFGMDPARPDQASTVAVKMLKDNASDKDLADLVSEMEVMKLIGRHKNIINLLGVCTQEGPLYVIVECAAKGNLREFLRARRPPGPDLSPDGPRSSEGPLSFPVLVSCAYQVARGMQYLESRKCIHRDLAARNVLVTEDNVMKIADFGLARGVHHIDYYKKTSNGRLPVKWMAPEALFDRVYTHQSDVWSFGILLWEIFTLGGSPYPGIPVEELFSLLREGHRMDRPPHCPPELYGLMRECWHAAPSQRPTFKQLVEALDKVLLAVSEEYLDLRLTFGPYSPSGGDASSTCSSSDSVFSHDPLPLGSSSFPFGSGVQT
Tyrosine-protein kinase ABL1 (Homo sapiens), sequence (P00519 whole entry): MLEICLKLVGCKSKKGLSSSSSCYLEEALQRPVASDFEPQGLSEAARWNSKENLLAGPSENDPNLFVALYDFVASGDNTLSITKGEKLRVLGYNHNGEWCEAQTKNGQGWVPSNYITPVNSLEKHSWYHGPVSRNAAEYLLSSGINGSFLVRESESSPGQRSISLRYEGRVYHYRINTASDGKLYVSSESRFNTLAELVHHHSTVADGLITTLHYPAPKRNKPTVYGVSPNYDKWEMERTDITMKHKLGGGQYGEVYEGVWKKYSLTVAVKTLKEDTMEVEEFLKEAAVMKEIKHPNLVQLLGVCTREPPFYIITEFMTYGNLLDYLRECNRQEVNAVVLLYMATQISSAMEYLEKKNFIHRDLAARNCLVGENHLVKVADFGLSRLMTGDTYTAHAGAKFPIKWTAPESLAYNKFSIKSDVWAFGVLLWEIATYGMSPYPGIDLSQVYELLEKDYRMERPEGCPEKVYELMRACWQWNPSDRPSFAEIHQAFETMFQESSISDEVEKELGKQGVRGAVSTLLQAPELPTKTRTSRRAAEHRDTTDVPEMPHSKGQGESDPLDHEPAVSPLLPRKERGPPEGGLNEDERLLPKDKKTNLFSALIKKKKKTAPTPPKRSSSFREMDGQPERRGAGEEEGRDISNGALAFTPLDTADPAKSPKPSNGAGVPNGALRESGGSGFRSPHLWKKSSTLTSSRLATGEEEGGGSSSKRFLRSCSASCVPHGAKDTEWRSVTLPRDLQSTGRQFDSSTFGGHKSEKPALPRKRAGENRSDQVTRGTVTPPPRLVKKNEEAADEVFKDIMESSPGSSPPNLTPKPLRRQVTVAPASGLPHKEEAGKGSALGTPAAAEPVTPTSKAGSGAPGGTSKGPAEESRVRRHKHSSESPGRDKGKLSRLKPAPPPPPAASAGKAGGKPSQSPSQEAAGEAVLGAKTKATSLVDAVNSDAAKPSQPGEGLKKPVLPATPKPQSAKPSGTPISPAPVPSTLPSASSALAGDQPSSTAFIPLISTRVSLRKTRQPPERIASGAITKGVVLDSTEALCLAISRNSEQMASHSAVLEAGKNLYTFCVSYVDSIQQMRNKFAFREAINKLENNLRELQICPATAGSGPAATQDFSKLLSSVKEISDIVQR
Receptor-interacting serine/threonine-protein kinase 2 (Homo sapiens), sequence (O43353 whole entry, the tested form may be a part): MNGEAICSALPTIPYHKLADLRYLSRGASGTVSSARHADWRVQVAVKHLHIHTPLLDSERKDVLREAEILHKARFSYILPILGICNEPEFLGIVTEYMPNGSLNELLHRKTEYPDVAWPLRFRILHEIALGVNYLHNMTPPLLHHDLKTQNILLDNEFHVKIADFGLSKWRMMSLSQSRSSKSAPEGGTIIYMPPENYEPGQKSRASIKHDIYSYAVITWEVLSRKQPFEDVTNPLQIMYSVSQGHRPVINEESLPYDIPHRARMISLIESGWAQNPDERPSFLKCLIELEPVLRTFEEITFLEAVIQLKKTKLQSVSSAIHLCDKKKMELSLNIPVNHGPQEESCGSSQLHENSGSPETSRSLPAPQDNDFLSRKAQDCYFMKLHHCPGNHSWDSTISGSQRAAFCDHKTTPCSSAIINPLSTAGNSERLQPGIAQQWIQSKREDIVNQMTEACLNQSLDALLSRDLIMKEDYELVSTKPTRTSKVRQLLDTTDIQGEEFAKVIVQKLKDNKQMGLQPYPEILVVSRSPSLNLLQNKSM

Regarding `COc1cc2c(Oc3ccc(-c4nc5ccccc5s4)cc3F)ncnc2cc1OCCCN1CCN(C)CC1`, the residual activity was determined as 109% in experiment [1]; 97% in experiment [2]; 104% in experiment [3]; 110% in experiment [4]; 1% in [5]; 83% in experiment [6]. Moreover, the residual activity was 101% in experiment [7]; 134% in experiment [8]; 94% in experiment [9]; 106% in experiment [10]; 24% in [11]; 92% in [12]. In addition, in experiment [13], the residual activity was found to be 103%.
For the compound `COc1cc2c(Oc3ccc(-c4nc5ccccc5s4)cc3)ncnc2cc1OCCCN1CCN(C)CC1`, the residual activity in experiment [1] was determined as 104%; in [2], 101%; in [3] it was 88%; in experiment [4] it was 99%; in experiment [5], 2%; in experiment [6], 88%. In addition, the residual activity in [7] was 92%; in experiment [8], 124%; in experiment [9], 115%; in experiment [10] it was 94%; in experiment [11] it was 61%; in experiment [12], 102%. Further, the residual activity in experiment [13] is 100%.
In the case of `COc1cc2c(Oc3ccc(-c4nc5ccccc5s4)cc3)ncnc2cc1OCCCN1CCCC1`, the residual activity in experiment [1] was found to be 100%; in [2], 95%; in experiment [3], 101%; in experiment [4], 100%; in [5], 4%; in experiment [6], 94%. For the same compound, the residual activity in experiment [7] came to 97%; in experiment [8], 102%; in experiment [9], 96%; in [10] it was 97%; in experiment [11] it was 71%; in experiment [12], 93%. Also, in experiment [13], the residual activity was 103%.
